Values quoted from earlier work as cited in US20080066744A1, “PROCESS FOR PRODUCING METERED DOSE INHALER FORMULATIONS” (Schering Corporation, priority 2002, published 2008).
Where two headings read alike, the source gives them in different places.

Row | solubility (in acetone) | solubility (in chloroform) | solubility (in ethanol) | solubility (in isopropanol) | solubility (in methanol) | solubility (in tetrahydrofuran) | solubility (in water) | Compound
1 | soluble | soluble | slightly soluble | slightly soluble | slightly soluble | freely soluble | practically insoluble | C[C@@H]1C[C@H]2[C@@H]3CCC4=CC(=O)C=C[C@]4(C)[C@@]3(Cl)[C@@H](O)C[C@]2(C)[C@@]1(OC(=O)c1ccco1)C(=O)CCl [Mometasone furoate, 9,21-Dichloro-11(beta), 17-dihydroxy-16(alpha)-methylpregna-1,4-diene-3,20-dione 17-(2 furoate)]
2 |  |  | slightly soluble |  |  |  | soluble | (alpha) ^1[(tert-Butylamino)methyl]4-hydroxy-m-xylene-(alpha),(alpha)′-diol sulfate (2:1)(salt) [Albuterol sulfate]
